Common to all, as to format: physicochemical
Series [1] can be described thus: Solubility/miscibility of liquid form with hexane. How it is done: In such systems, suitable gases are ones that have a solubility/miscibility of their liquid forms with hexane, which is a model for the hydrophobic region of surfactants, of greater than 10% mole/mole at 37° C. For gases with a boiling point below 37° C., e.g. butane and perfluorobutane, this measurement must be carried out at elevated pressure. The adsorbing gas should be present in the bubble gas phase at a concentration of more than 2% by mole fraction of the gas mixture and preferably at about 5%, 10%, 25%, 50%, or 100%. The use of fluorinated surfactants with fluorinated gases is preferred. The liquid phase of the adsorbing gas should be relatively insoluble in water, less than 1% wt./wt. solubility/miscibility.

The nature of the next series: Solubility in water. An excerpt:
(§1) In order to stabilize microbubbles in this fashion and provide desirable harmonic characteristics, the osmotic agent is preferably present in the gas phase of the bubble at a mole fraction concentration of greater than approximately 2%, and more preferably at about 5%, 10%, 25%, 50%, or 100%. The vapor inside the bubble is preferably near saturation under the conditions of examination, preferably at least about 50%, 75% or 100% of the saturation concentration. Thus, for microbubbles used for imaging in a human, the liquid phase of the vapor in the bubble must have a vapor pressure at 37° C. greater than 2% of the pressure inside the bubble (one atmosphere plus the blood pressure of the human being examined plus the pressure caused by the surface tension of the bubble, the LaPlace pressure). This total pressure for 3 micron bubbles could reach 1.5 bar and thus requires the liquid phase of the vapor in the bubble to have a vapor pressure at 37° C. greater than approximately 23 torr. The liquid phase of the vapor should also have a low solubility in water, preferably less than 1% wt./wt.
In such systems, suitable gases are ones that have a solubility/miscibility of their liquid forms with hexane, which is a model for the hydrophobic region of surfactants, of greater than 10% mole/mole at 37° C. […]

A short description of another series: Vapor pressure at 37° C.
Text: as §1

As to `FC(F)(F)C(F)(F)C(F)(F)C(F)(F)C(F)(F)F` [perfluoropentane], the “Solubility in water and hexane versus criteria for adsorption in surfactant layer” value in series [1] was “meet the criteria above”.
With `FC(F)(F)C(F)(F)C(F)(F)C(F)(F)F` [perfluorobutane], in “Solubility in water”, the Water solubility entry is “less than 1 % wt./wt”. For the same molecule, the Solubility in hexane entry in series [1] is recorded as “greater than 10 % mole/mole”.
On to `FC(F)(F)C(F)(F)C(F)(F)C(F)(F)C(F)(F)C(F)(F)F` [perfluorohexane], for which the Water solubility entry in the series “Solubility in water” is listed as “less than 1 % wt./wt”. For the same molecule, in the series “Vapor pressure at 37° C.”, the Vapor pressure result was “over 23 torr”.

These data come from patent publication US7081092B2, “Methods and apparatus for monitoring and quantifying the movement of fluid” (IMCOR Pharmaceutical Company, priority 1994, dated 2006).
